Data from patent publication US11000033B2, “Ketone or oxime compound, and herbicide” (NISSAN CHEMICAL CORPORATION, priority 2014, dated 2021).

Assays:
Assay type in all cases: in vivo
[1] = test system: Cyperus difformis; assay: Test Example 3: herbicidal effect by foliage application, Wagner pot (symbol E); settings: application herbicide amount 320 g/ha
Procedure, shortened: (§1)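 Foliar spray of a water-diluted emulsion at a predetermined herbicide amount, applied to 14-day-old plants. Seedlings were raised in flooded alluvial soil (0.1–0.5 cm water) at 25–30 °C in a greenhouse. Injury was rated after 3 weeks against fixed criteria.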

[2] = test system: Galium spurium; assay: Test Example 4: herbicidal effect by soil treatment (symbol Q); settings: application herbicide amount 320 g/ha
Procedure, shortened: (§2)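 Seeds were sown in sterilized diluvial soil, covered with about 1.5 cm of soil, and the soil surface was sprayed with a water-diluted emulsion of the compound at a predetermined rate. Plants grew in a greenhouse at 25° C. to 30° C.; effects were scored visually 3 weeks after application.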

[3] = test system: Stellaria media; assay: Test Example 5: herbicidal effect by foliage application, plastic box (symbol P); settings: 320 g/ha, 3 weeks after application
Procedure, shortened: (§3)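 Leaf-applied emulsion, water-diluted to a preset herbicide dose, on two-week-old seedlings raised in a 25° C. to 30° C. greenhouse; injury rated at 3 weeks using earlier criteria.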

[4] = test system: Abutilon theophrasti; assay: Test Example 4: herbicidal effect by soil treatment (symbol M); settings: application herbicide amount 320 g/ha
Procedure, shortened: as §2

[5] = test system: Amaranthus retroflexus; assay: Test Example 4: herbicidal effect by soil treatment (symbol N); settings: application herbicide amount 320 g/ha
Procedure, shortened: as §2

[6] = test system: Chenopodium album; assay: Test Example 5: herbicidal effect by foliage application, plastic box (symbol O); settings: 320 g/ha, 3 weeks after application
Procedure, shortened: as §3

[7] = test system: rice; assay: Test Example 4: effect on crop by soil treatment (symbol b); settings: application herbicide amount 320 g/ha
Procedure, shortened: (§4)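 Plants grew in a 25° C. to 30° C. greenhouse after spot-sowing of seeds, including beet, rapeseed, wheat and rice, into sterilized diluvial soil under roughly 1.5 cm of cover soil.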

[8] = test system: Echinochloa oryzacola Vasing.; assay: Test Example 2: herbicidal activity, application during weed generation in submerged conditions (symbol A); settings: Table 23; application herbicide amount 320 g/ha; grade 0-5 by criteria of Test Example 1
Procedure, shortened: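 Scoring of herbicidal effect took place 3 weeks after treatment, using the criteria of the earlier test. Treatment was water-surface application of diluted emulsifiable compound at a set dose. Plants were at one- to two-leaf stage in submerged alluvial soil (4 cm depth), greenhouse 25-30° C.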

[9] = test system: Avena fatua; assay: Test Example 5: herbicidal effect by foliage application, plastic box (symbol I); settings: 320 g/ha, 3 weeks after application
Procedure, shortened: as §3

[10] = test system: Setaria viridis; assay: Test Example 4: herbicidal effect by soil treatment (symbol G); settings: application herbicide amount 320 g/ha
Procedure, shortened: as §2

[11] = test system: Lolium multiflorum Lam.; assay: Test Example 4: herbicidal effect by soil treatment (symbol K); settings: application herbicide amount 320 g/ha
Procedure, shortened: as §2

[12] = test system: directly sowed rice plant; assay: Test Example 3: effect on crop by foliage application, Wagner pot (symbol b); settings: application herbicide amount 320 g/ha
Procedure, shortened: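 Plants are raised from seed in flooded paddy conditions: water stands 0.1–0.5 cm over alluvial soil, and the pot is kept in a greenhouse at 25–30 °C. Species sown are barnyardgrass (E. crus-galli var. crus-galli), Leptochloa chinensis, Cyperus difformis and rice.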

[13] = test system: Chenopodium album; assay: Test Example 4: herbicidal effect by soil treatment (symbol O); settings: application herbicide amount 320 g/ha
Procedure, shortened: as §2

[14] = test system: corn; assay: Test Example 5: effect on crop by foliage application, plastic box (symbol c); settings: 320 g/ha, 3 weeks after application
Procedure, shortened: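 Greenhouse test at 25° C. to 30° C. Seeds of crops and weeds were spot-sown in boxes of sterilized diluvial soil under roughly 1.5 cm soil cover, then grown for foliage treatment.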

[15] = test system: Leptochloa chinensis; assay: Test Example 3: herbicidal effect by foliage application, Wagner pot (symbol D); settings: application herbicide amount 320 g/ha
Procedure, shortened: as §1

[16] = test system: wheat; assay: Test Example 4: effect on crop by soil treatment (symbol e); settings: application herbicide amount 320 g/ha
Procedure, shortened: as §4

[17] = test system: Alopecurus myosuroides; assay: Test Example 4: herbicidal effect by soil treatment (symbol J); settings: application herbicide amount 320 g/ha
Procedure, shortened: as §2

[18] = test system: Avena fatua; assay: Test Example 4: herbicidal effect by soil treatment (symbol I); settings: application herbicide amount 320 g/ha
Procedure, shortened: as §2

CON=C(C)CC1CC(O)=C(c2c(C)cc(-c3cc(Cl)cc(Cl)c3)cc2C)C1=O (stereo not drawn) [6-087]
herbicidal effect on E, grade 0-5 [1]: 0 (Herbicidal ratio of 5% or lower (almost no effect))
Herbicidal effect grade, Q: Galium spurium [2]: 0 (Herbicidal ratio of 5% or lower (almost no effect))
P: Stellaria media, herbicidal effect (criteria of Test Example 1) [3]: 1 (Herbicidal ratio of 5% or higher and lower than 20%)
Herbicidal effect grade, M: Abutilon theophrasti [4]: 0 (Herbicidal ratio of 5% or lower (almost no effect))
Herbicidal effect grade, N: Amaranthus retroflexus [5]: 0 (Herbicidal ratio of 5% or lower (almost no effect))
O: Chenopodium album, herbicidal effect (criteria of Test Example 1) [6]: 0 (Herbicidal ratio of 5% or lower (almost no effect))
Effect on crop grade, b: directly sowed rice plant [7]: 0 (Herbicidal ratio of 5% or lower (almost no effect))
Herbicidal effect grade, A: Echinochloa oryzacola Vasing. [8]: 2 (Herbicidal ratio of 20% or higher and lower than 40%)
I: Avena fatua, herbicidal effect (criteria of Test Example 1) [9]: 0 (Herbicidal ratio of 5% or lower (almost no effect))
Herbicidal effect grade, G: Setaria viridis [10]: 5 (Herbicidal ratio of 90% or more (almost completely withered))
Herbicidal effect grade, K: Lolium multiflorum Lam. [11]: 3 (Herbicidal ratio of 40% or higher and lower than 70%)
effect on crop b (directly sowed rice plant), grade 0-5 [12]: 5 (Herbicidal ratio of 90% or more (almost completely withered))
Herbicidal effect grade, O: Chenopodium album [13]: 0 (Herbicidal ratio of 5% or lower (almost no effect))
c: corn, effect on crop (criteria of Test Example 1) [14]: 0 (Herbicidal ratio of 5% or lower (almost no effect))
herbicidal effect on D (Leptochloa chinensis), grade 0-5 [15]: 5 (Herbicidal ratio of 90% or more (almost completely withered))
Effect on crop grade, e: wheat [16]: 0 (Herbicidal ratio of 5% or lower (almost no effect))
Herbicidal effect grade, J: Alopecurus myosuroides [17]: 4 (Herbicidal ratio of 70% or higher and lower than 90%)
Herbicidal effect grade, I: Avena fatua [18]: 0 (Herbicidal ratio of 5% or lower (almost no effect))
